Experiments:
crabgrass, large = test: Test A pre-/postemergence herbicide test; assay type: in vivo, Digitaria sanguinalis; settings: for Crabgrass, Large plant response rating: Preemergence, visual rating on 0 to 100 scale (0 no effect, 100 complete control)
Outline: (§1)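 Greenhouse pot test with pre- and postemergence application of surfactant-containing solvent formulations. Postemergence plants were 2–10 cm, one- to two-leaf stage. Response scored visually after ~10 days, 0 (no effect) to 100 (complete control).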

morningglory = test: Test A pre-/postemergence herbicide test; assay type: in vivo, Ipomoea spp.; settings: for Morningglory plant response rating: Preemergence, visual rating on 0 to 100 scale (0 no effect, 100 complete control)
Outline: as §1

velvetleaf = test: Test A pre-/postemergence herbicide test; assay type: in vivo, Abutilon theophrasti; settings: for Velvetleaf plant response rating: Preemergence, visual rating on 0 to 100 scale (0 no effect, 100 complete control)
Outline: as §1

ducksalad = test: Test C flooded paddy test; assay type: in vivo, Heteranthera limosa; settings: Flood
Outline: (§2)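 Visual injury scored against controls after 13 to 15 days in the greenhouse, using 0 (no effect) to 100 (complete control). Test compounds went straight into paddy water held 3 cm above the soil surface on 2-leaf-stage plants, with that flood depth maintained for the whole test.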

barnyardgrass = test: Test C flooded paddy test; assay type: in vivo, Echinochloa crus-galli; settings: Flood
Outline: as §2

kochia = test: Test A pre-/postemergence herbicide test; assay type: in vivo, Kochia scoparia
Outline: as §1

ragweed = test: Test A pre-/postemergence herbicide test; assay type: in vivo, Ambrosia elatior
Outline: as §1

ryegrass, Italian = test: Test A pre-/postemergence herbicide test; assay type: in vivo, Lolium multiflorum
Outline: as §1

galium = test: Test A postemergence herbicide test; assay type: in vivo, Galium aparine
Outline: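 Plants at the one- to two-leaf stage, 2–10 cm tall, grown in loam/sand pots, received postemergence sprays of the test chemicals. After about 10 days in the greenhouse, injury was scored visually against untreated controls on a 0–100 scale (0 none, 100 complete control).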

[1] = Postemergence, 125 g ai/ha, 0 to 100 scale, 0 no effect, 100 complete control
[2] = Postemergence, 500 g ai/ha, 0 to 100 scale (0 no effect, 100 complete control)
[3] = preemergence, 500 g ai/ha, 0 to 100 scale
[4] = 62 g ai/ha, scale of 0 to 100 where 0 is no effect and 100 is complete control, 13 to 15 days
[5] = Postemergence, 125 g ai/ha, 0 to 100 scale, 0 is no effect, 100 is complete control
[6] = Preemergence, 125 g ai/ha, 0 to 100 scale where 0 is no effect and 100 is complete control
[7] = preemergence, 500 g ai/ha, 0 to 100 scale, 0 is no effect and 100 is complete control
[8] = Postemergence, 125 g ai/ha, visual rating on 0 to 100 scale (0 no effect, 100 complete control), approx. 10 days
[9] = 125 g ai/ha, 0 to 100 scale, 0 is no effect, 100 is complete control
[10] = 500 g ai/ha, 0 to 100 scale (0 no effect, 100 complete control)
[11] = Preemergence, 500 g ai/ha, visual rating on 0 to 100 scale (0 no effect, 100 complete control)
[12] = 125 g ai/ha, visual rating on 0 to 100 scale (0 no effect, 100 complete control), approx. 10 days
[13] = 125 g ai/ha, visual rating, 0 to 100 scale, 0 no effect, 100 complete control, approximately 10 days, preemergence

| SMILES | Plant response rating, Crabgrass, Large (crabgrass, large; [1]) | Plant response rating, Crabgrass, Large (crabgrass, large; [2]) | Crabgrass, Large plant response rating (crabgrass, large; 125 g ai/ha) | Plant response rating, Crabgrass, Large (crabgrass, large; [3]) | Plant response rating, Morningglory (morningglory; [2]) | Morningglory plant response rating (morningglory; 125 g ai/ha) | Plant response rating, Kochia (kochia; [2]) | Plant response rating, Kochia (kochia; [6]) | Plant response rating, Ragweed (ragweed; [8]) | Plant response rating, Ragweed (ragweed; [2]) | Plant response rating, Ragweed (ragweed; [6]) | Plant response rating, Ryegrass, Italian (ryegrass, Italian; [8]) | Plant response rating, Ryegrass, Italian (ryegrass, Italian; [2]) | Plant response rating, Ryegrass, Italian (ryegrass, Italian; [6]) | Plant response rating, Galium (galium; [10]) | Plant response rating, Kochia (kochia; [8]) | Kochia plant response rating (kochia; [11]) | Ragweed plant response rating (ragweed; [11]) | Ryegrass, Italian plant response rating (ryegrass, Italian; [11]) | Plant response rating, Galium (galium; [12]) | other results |
| --- | --- | --- | --- | --- | --- | --- | --- | --- | --- | --- | --- | --- | --- | --- | --- | --- | --- | --- | --- | --- | --- |
| O=C1NCC(c2ccc(F)c(F)c2)C1C(=O)Nc1ccccc1C(F)(F)F (racemic) [Compound 6] | 60 | 80 | 80 | 90 | 0 | 0 | – | – | – | – | – | – | – | – | – | – | – | – | – | – | Plant response rating, Morningglory (morningglory; [3]): 0; Plant response rating, Velvetleaf (velvetleaf; [2]): 10; Velvetleaf plant response rating (velvetleaf; 125 g ai/ha): 0; Plant response rating, Velvetleaf (velvetleaf; [3]): 0 |
| O=C1NCC(c2ccc(Cl)c(Cl)c2)C1C(=O)Nc1ccccc1F (racemic) [Compound 14] | 80 | 90 | 90 | 90 | 0 | 0 | – | – | – | – | – | – | – | – | – | – | – | – | – | – | Plant response rating, Morningglory (morningglory; [1]): 0; Plant response rating, Morningglory (morningglory; [3]): 0; Plant response rating, Velvetleaf (velvetleaf; [1]): 0; Plant response rating, Velvetleaf (velvetleaf; [2]): 90; Velvetleaf plant response rating (velvetleaf; 125 g ai/ha): 0; Plant response rating, Velvetleaf (velvetleaf; [3]): 0; Plant response rating, Ducksalad (ducksalad; [4]): 40; Plant response rating, Ducksalad (ducksalad; 250 g ai/ha, scale 0 to 100): 85; Plant response rating, Barnyardgrass (barnyardgrass; [4]): 0; Plant response rating, Barnyardgrass (barnyardgrass; 250 g ai/ha, scale 0 to 100): 0 |
| O=C1NCC(c2cc(F)cc(F)c2)C1C(=O)Nc1ccccc1Cl (racemic) [Compound 280] | – | – | – | – | – | – | 0 | 0 | 0 | 0 | 0 | 0 | 0 | 0 | 0 | – | – | – | – | – | Plant response rating, Kochia (kochia; [5]): 0; Plant response rating, Kochia (kochia; [7]): 0; Plant response rating, Ragweed (ragweed; [7]): 0; Plant response rating, Ryegrass, Italian (ryegrass, Italian; [7]): 0; Plant response rating, Galium (galium; [9]): 0 |
| O=C1NCC(c2ccc(OC(F)F)cc2)C1C(=O)Nc1cccc(F)c1F (racemic) [Compound 350] | – | – | – | – | – | – | – | 80 | 0 | – | 30 | 0 | – | 0 | – | 70 | 80 | 30 | 0 | 60 | – |
| O=C1NCC(c2cccc(OC(F)(F)F)c2)C1C(=O)Nc1ccccc1F (centres unmarked) [Compound 69] | 70 | 90 | 90 | 90 | 0 | 0 | – | – | – | – | – | – | – | – | – | – | – | – | – | – | Plant response rating, Morningglory (morningglory; [1]): 0; Plant response rating, Morningglory (morningglory; [3]): 0; Plant response rating, Velvetleaf (velvetleaf; [1]): 20; Plant response rating, Velvetleaf (velvetleaf; [2]): 30; Velvetleaf plant response rating (velvetleaf; 125 g ai/ha): 0; Plant response rating, Velvetleaf (velvetleaf; [3]): 0 |
| O=C1NCC(c2ccc(Cl)cc2)C1C(=O)Nc1cccc(F)c1F (centres unmarked) [Compound 218] | – | – | – | – | – | – | – | – | – | – | – | – | – | – | – | – | – | – | – | – | Plant response rating, Kochia (kochia; [13]): 30; Plant response rating, Kochia (kochia; [5]): 50; Kochia plant response rating (0 to 100 scale, 0 is no effect, 100 is complete control) (kochia; Postemergence, 500 g ai/ha): 60; Plant response rating, Kochia (kochia; [7]): 70; Plant response rating, Ragweed (ragweed; [13]): 0; Plant response rating, Ragweed (ragweed; [5]): 0; Ragweed plant response rating (0 to 100 scale, 0 is no effect, 100 is complete control) (ragweed; Postemergence, 500 g ai/ha): 50; Plant response rating, Ragweed (ragweed; [7]): 50; Plant response rating, Ryegrass, Italian (ryegrass, Italian; [13]): 40; Plant response rating, Ryegrass, Italian (ryegrass, Italian; [5]): 0; Ryegrass, Italian plant response rating (0 to 100 scale, 0 is no effect, 100 is complete control) (ryegrass, Italian; Postemergence, 500 g ai/ha): 30; Plant response rating, Ryegrass, Italian (ryegrass, Italian; [7]): 60; Plant response rating, Galium (galium; [9]): 40; Galium plant response rating (0 to 100 scale, 0 is no effect, 100 is complete control) (galium; 500 g ai/ha): 60 |
| O=C1NCC(c2ccc(C(F)(F)F)cc2)C1C(=O)Nc1ccccc1F (centres unmarked) [Compound 231] | – | – | – | – | – | – | – | – | – | – | – | – | – | – | – | – | – | – | – | – | Plant response rating, Kochia (kochia; [13]): 70; Plant response rating, Kochia (kochia; [5]): 70; Kochia plant response rating (0 to 100 scale, 0 is no effect, 100 is complete control) (kochia; Postemergence, 500 g ai/ha): 90; Plant response rating, Kochia (kochia; [7]): 90; Plant response rating, Ragweed (ragweed; [13]): 70; Plant response rating, Ragweed (ragweed; [5]): 20; Ragweed plant response rating (0 to 100 scale, 0 is no effect, 100 is complete control) (ragweed; Postemergence, 500 g ai/ha): 50; Plant response rating, Ragweed (ragweed; [7]): 90; Plant response rating, Ryegrass, Italian (ryegrass, Italian; [13]): 40; Plant response rating, Ryegrass, Italian (ryegrass, Italian; [5]): 20; Ryegrass, Italian plant response rating (0 to 100 scale, 0 is no effect, 100 is complete control) (ryegrass, Italian; Postemergence, 500 g ai/ha): 40; Plant response rating, Ryegrass, Italian (ryegrass, Italian; [7]): 60; Plant response rating, Galium (galium; [9]): 40; Galium plant response rating (0 to 100 scale, 0 is no effect, 100 is complete control) (galium; 500 g ai/ha): 50 |
| CN1CC(c2cccc(C(F)(F)F)c2)C(C(=O)Nc2cccc(F)c2F)C1=O (centres unmarked) [Compound 305] | – | – | – | – | – | – | 70 | 70 | 0 | 0 | 30 | 60 | 70 | 70 | 70 | 30 | 70 | 50 | 90 | 50 | – |
| CN1CC(c2ccc(C(F)(F)F)cc2)C(C(=O)Nc2cccc(F)c2F)C1=O (centres unmarked) [Compound 306] | – | – | – | – | – | – | 70 | 70 | 20 | 40 | – | 50 | 60 | 40 | 70 | 30 | 80 | 80 | 80 | 60 | – |
| CC(C)c1cccc(C2CNC(=O)C2C(=O)Nc2cccc(F)c2F)c1 (centres unmarked) [Compound 319] | – | – | – | – | – | – | 50 | 60 | 20 | 40 | 30 | 30 | 50 | 30 | 50 | 30 | 80 | 40 | 60 | 30 | – |

— patent US10294202B2, “Pyrrolidinones as herbicides” (FMC Corporation, priority 2013, dated 2019)
